The record followed here is patent US20150225369A1, “DDR2 INHIBITORS FOR THE TREATMENT OF OSTEOARTHRITIS” (Merck Patent GmbH, priority 2012, published 2015).

The target of the test is T1, His-tagged human recombinant DDR-2 kinase domain (His-TEV-DDR2 467-855 aa) (Homo sapiens, UniProt Q16832).
T1 construct: His-TEV-DDR2 467-855 aa
T1 sequence (Q16832 467-855): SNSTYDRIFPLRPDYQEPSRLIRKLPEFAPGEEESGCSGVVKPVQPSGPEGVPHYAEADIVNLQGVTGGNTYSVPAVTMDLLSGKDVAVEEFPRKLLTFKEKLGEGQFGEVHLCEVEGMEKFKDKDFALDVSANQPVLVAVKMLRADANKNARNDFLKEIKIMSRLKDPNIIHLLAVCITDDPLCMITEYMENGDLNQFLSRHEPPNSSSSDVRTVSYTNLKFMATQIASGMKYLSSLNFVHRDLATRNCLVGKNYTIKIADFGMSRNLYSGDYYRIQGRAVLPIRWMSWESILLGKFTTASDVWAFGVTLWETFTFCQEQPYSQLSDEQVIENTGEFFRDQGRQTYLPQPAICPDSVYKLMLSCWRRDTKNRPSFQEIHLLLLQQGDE
Put plainly: Autophosphorylation assay for biochemical activity testing of DDR2 (HTRF). Here is the method: The autophosphorylation assay was run in two steps: the enzymatic reaction in which His-tagged DDR2 with ATP as co-substrate phosphorylates itself and the detection reaction where a time resolved FRET between XL665® labelled anti-6His antibody bound to the His-tag of the enzyme and cryptate labelled anti-phospho-Tyrosine-antibody (PT66) bound the phosphorylated Tyrosine residue of DDR2 was analysed. The autophosphorylation activity was detectable directly via the increase in HTRF signal.
The autophosphorylation assay was performed as 1536 well or 384 well HTRF® (Cisbio, Codolet, France) assay format in Greiner low volume medium binding 384-well microtiter plates and was used for high throughput screen. […] The ratio of the emission signals was determined. The full value used was the inhibitor-free reaction.
(In general: TR-FRET usually uses a lanthanide donor and a delayed reading to cut background.)

Where [1] appears, read: Table 6, 4 nM DDR2 kinase domain, 150 μM ATP.
Where [2] appears, read: 4 nM DDR2 kinase domain, 150 μM ATP, 150 min at 22° C.
[3] abbreviates: biochemical DDR2 autophosphorylation.

For orientation: IC50 means the point on the concentration scale where inhibition reaches its midpoint. For `CNC(=O)c1cc(Oc2ccc(C(O)CC(=O)Nc3ccc(Cl)c(C(F)(F)F)c3)cc2C)ccn1` (stereo not shown) [compound 2], the IC50 under setting [1] was determined as 21000 nM. In the case of `CNC(=O)c1cc(Oc2ccc(CNC(=O)Nc3cc(Cl)nc(Cl)c3)cc2)ccn1` [compound 2], under setting [2], the concentration for half-maximal inhibition (IC50) was 1500 nM. As for `O=C(NCc1ccc(Oc2ccncc2)cc1)Nc1cc(Cl)c(Cl)cc1Cl` [compound 2], under setting [3], the IC50 amounted to 1400 nM. As for `CNC(=O)c1cc(Oc2ccc(CCC(=O)Nc3ccc(Cl)c(C(F)(F)F)c3)cc2C)ccn1` [compound 3], the IC50 under setting [1] is 1600 nM. As to `CNC(=O)c1cc(Oc2ccc(CNC(=O)Nc3ccccn3)cc2)ccn1` [compound 3], under setting [2], the IC50 was 3800 nM. For the compound `CNC(=O)c1cc(Oc2ccc(COC(=O)Nc3cc(C(F)(F)F)ccn3)cc2)ccn1` [compound 3], the half-inhibitory concentration (IC50) under setting [2] is 33 nM.

For `CNC(=O)c1cc(Oc2ccc(CNC(=O)Nc3cccnc3OC)cc2)ccn1` [compound 4], the IC50 under setting [2] amounted to 1600 nM. For `CNC(=O)c1cc(Oc2ccc(COC(=O)Nc3cc(C(F)(F)F)ccn3)cc2C)ccn1` [compound 4], the concentration for half-maximal inhibition (IC50) under setting [2] amounted to 41 nM. Regarding `CNC(=O)c1cc(Oc2ccc(OCC(=O)Nc3cc(C(F)(F)F)cn(C)c3=O)cc2)ccn1` [compound 4], under setting [1], the half-maximal inhibitory concentration (IC50) came out at 570 nM. As for `O=C(NCc1ccc(Oc2ccncc2)cc1)Nc1cccc(C(F)(F)F)c1` [compound 4], under setting [3], the IC50 was 36 nM. For `CNC(=O)c1cc(Oc2ccc(CNC(=O)Nc3cccnc3)cc2)ccn1` [compound 5], under setting [2], the half-inhibitory concentration (IC50) came out at 15000 nM. As for `CNC(=O)c1cc(Oc2ccc(COC(=O)Nc3cc(C(F)(F)F)cnc3O)cc2)ccn1` [compound 5], the concentration for half-maximal inhibition (IC50) under setting [2] came to 610 nM. Turning to `O=C(NCc1ccc(Oc2ccncc2)cc1)Nc1ccc(Cl)cc1Cl` [compound 5], under setting [3], the IC50 worked out at 1400 nM. As to `CNC(=O)c1cc(Oc2ccc(CNC(=O)Nc3ccnc(Cl)c3)cc2)ccn1` [compound 6], the IC50 under setting [2] was found to be 1000 nM. With `Cc1cccc(NC(=O)NCc2ccc(Oc3ccncc3)cc2)c1` [compound 6], the IC50 under setting [3] is 1000 nM. Same read-out and setting: next, `CC(=O)c1cccc(NC(=O)NCc2ccc(Oc3ccncc3)cc2)c1` [compound 7]: 10000 nM. On to `CNC(=O)c1cc(Oc2ccc(CNC(=O)Nc3ncc(C(F)(F)F)cc3Cl)cc2)ccn1` [compound 7], for which the half-inhibitory concentration (IC50) under setting [2] came to 6600 nM. Consider `Cn1cc(C(F)(F)F)cc(NC(=O)NCc2ccc(Oc3ccnc4ccccc34)cc2)c1=O` [compound 9], for which the IC50 under setting [2] came to 51 nM. Regarding `O=C(NCc1ccc(Oc2ccncc2)cc1)Nc1ccc(Br)cc1` [compound 9], under setting [3], the half-maximal inhibitory concentration (IC50) was found to be 3800 nM. Regarding `CNC(=O)c1cc(Oc2ccc(CNC(=O)Nc3cnc4ccccc4c3)cc2)ccn1` [compound 10], the IC50 under setting [2] is 290 nM. As to `O=C(NCc1ccc(Oc2ccncc2)cc1)Nc1cc(Cl)ccc1Cl` [compound 10], under setting [3], the IC50 stood at 270 nM. `CCn1cc(C(F)(F)F)cc(NC(=O)NCc2ccc(Oc3ccnc(C(=O)NC)c3)cc2)c1=O` [compound 11]: under setting [2], the half-maximal inhibitory concentration (IC50) came out at 91 nM. Consider `CNC(=O)c1cc(Oc2ccc(CNC(=O)Nc3cc4ccccc4nc3OC)cc2)ccn1` [compound 11], for which the 50% inhibitory concentration (IC50) under setting [2] was found to be 190 nM.

As for `O=C(NCc1ccc(Oc2ccncc2)cc1)Nc1ccc(F)cc1` [compound 11], under setting [3], the IC50 came to 3400 nM. As to `CNC(=O)c1cc(Oc2ccc(CNC(=O)Nc3cc(C(F)(F)F)cn(Cc4ccccc4)c3=O)cc2)ccn1` [compound 12], the IC50 under setting [2] is 260 nM.

As for `CNC(=O)c1cc(Oc2ccc(CNC(=O)Nc3ccc(C)cn3)cc2)ccn1` [compound 12], the half-inhibitory concentration (IC50) under setting [2] is 2000 nM. On the same count and under the same terms, the figure for `CNC(=O)c1cc(Oc2ccc(CNC(=O)Nc3ccc(C)cn3)cc2C)ccn1` [compound 13] is 780 nM. As to `Cn1cc(C(F)(F)F)cc(NC(=O)NCc2ccc(Oc3ccncc3C(F)(F)F)cc2)c1=O` [compound 13], under setting [2], the IC50 is 1600 nM. Regarding `O=C(NCc1ccc(Oc2ccncc2)cc1)Nc1cccc(Cl)c1Cl` [compound 13], under setting [3], the IC50 was at least 100000 nM. As for `CNC(=O)c1cc(Oc2ccc(CNC(=O)Nc3cc(C)ccn3)cc2)ccn1` [compound 14], the IC50 under setting [2] turned out to be 570 nM.

As to `CNC(=O)c1cc(Oc2ccc(CNC(=O)Nc3ccccc3OC)cc2)ccn1` [compound 14], the IC50 under setting [3] was 1900 nM.

Turning to `CNC(=O)c1cc(Oc2ccc(CNC(=O)Nc3cc(C)ccn3)cc2C)ccn1` [compound 15], the IC50 under setting [2] was determined as 400 nM. Consider `COc1ccc(OC)c(NC(=O)NCc2ccc(Oc3ccncc3)cc2)c1` [compound 15], for which the IC50 under setting [3] is 440 nM. In the case of `CNC(=O)c1cc(Oc2ccc(CNC(=O)Nc3cccnc3Cl)cc2)ccn1` [compound 16], the IC50 under setting [2] was determined as 11000 nM.

With `O=C(NCc1ccc(Oc2ccncc2)cc1)Nc1ccc(Cl)cc1` [compound 16], the IC50 under setting [3] came out at 5900 nM. In the case of `CNC(=O)c1cc(Oc2ccc(CNC(=O)Nc3ccc(OC)nc3)cc2)ccn1` [compound 17], the 50% inhibitory concentration (IC50) under setting [2] amounted to 5600 nM. Turning to `COc1ccc(NC(=O)NCc2ccc(Oc3ccncc3)cc2)cc1` [compound 17], the IC50 under setting [3] came out at 13000 nM. The same measure, in the same setting: next, `Cc1ccc(NC(=O)NCc2ccc(Oc3ccncc3)cc2)cc1` [compound 18]: 4100 nM; `CNC(=O)c1cc(Oc2ccc(CNC(=O)Nc3cc(OC)ccc3OC)cc2)ccn1` [compound 20]: 98 nM; `O=C(NCc1ccc(Oc2ccncc2)cc1)Nc1ccc(C(F)(F)F)cc1` [compound 21]: 2000 nM. `CNC(=O)c1cc(Oc2ccc(CNC(=O)Nc3cc(C)cnc3Cl)cc2)ccn1` [compound 22]: under setting [2], the IC50 came to 710 nM. Consider `O=C(NCc1ccc(Oc2ccncc2)cc1)Nc1cc(C(F)(F)F)cc(C(F)(F)F)c1` [compound 22], for which, under setting [3], the IC50 was found to be 560 nM.

In the case of `Cc1cccc(NC(=O)NCc2ccc(Oc3ccncc3)cc2)c1C` [compound 24], under setting [3], the half-maximal inhibitory concentration (IC50) was at least 100000 nM. Consider `Cc1ccc(C)c(NC(=O)NCc2ccc(Oc3ccncc3)cc2)c1` [compound 25], for which, under setting [3], the concentration for half-maximal inhibition (IC50) was found to be 13000 nM. Take `O=C(NCc1ccc(Oc2ccncc2)cc1)Nc1ccccc1C(F)(F)F` [compound 26]: the IC50 under setting [3] was found to be 20000 nM. Consider `Cc1ccc(NC(=O)NCc2ccc(Oc3ccncc3)cc2)cc1Cl` [compound 27], for which the IC50 under setting [3] turned out to be 740 nM. As for `CCc1ccccc1NC(=O)NCc1ccc(Oc2ccncc2)cc1` [compound 28], under setting [3], the IC50 is at least 100000 nM.

Regarding `Cc1ccccc1NC(=O)NCc1ccc(Oc2ccncc2)cc1` [compound 29], the IC50 under setting [3] is at least 100000 nM.

As to `Cc1ccc(NC(=O)NCc2ccc(Oc3ccncc3)cc2)c(C)c1` [compound 30], the IC50 under setting [3] was 28000 nM. On to `COc1ncc(C)cc1NC(=O)NCc1ccc(Oc2ccnc(C)c2)c(C)c1` [compound 31], for which the IC50 under setting [2] was found to be 230 nM.

Turning to `COc1ccc(Cl)cc1NC(=O)NCc1ccc(Oc2ccncc2)cc1` [compound 32], the IC50 under setting [3] came to 87 nM.

Take `Cc1cc(Oc2ccc(CNC(=O)Nc3cnc4ccccc4c3)cc2C)ccn1` [compound 32]: under setting [2], the 50% inhibitory concentration (IC50) amounted to 7100 nM. Consider `COc1nc2ccccc2cc1NC(=O)NCc1ccc(Oc2ccnc(C)c2)c(C)c1` [compound 33], for which the IC50 under setting [2] worked out at 1700 nM.

Consider `O=C(NCc1ccc(Oc2ccncc2)cc1)Nc1ccccc1Cl` [compound 33], for which, under setting [3], the 50% inhibitory concentration (IC50) is at least 100000 nM. For the compound `CSc1cccc(NC(=O)NCc2ccc(Oc3ccncc3)cc2)c1` [compound 34], the IC50 under setting [3] stood at 5500 nM. Regarding `Cc1cc(Oc2ccc(CNC(=O)Nc3cc4ccccc4cn3)cc2C)ccn1` [compound 34], under setting [2], the IC50 is 11000 nM. Take `O=C(NCc1ccc(Oc2ccncc2)cc1)Nc1ccc(Br)cc1Cl` [compound 35, 1-(4-Bromo-2-chloro-phenyl)-3-[4-(pyridin-4-yloxy)-benzyl]-urea]: the 50% inhibitory concentration (IC50) under setting [3] is 9500 nM. As to `COc1ccccc1NC(=O)NCc1ccc(Oc2ccncc2)cc1` [compound 36, 1-(2-Methoxy-phenyl)-3-[4-(pyridin-4-yloxy)-benzyl]-urea], the IC50 under setting [3] is 1700 nM. `O=C(NCc1ccc(Oc2ccncc2)cc1)Nc1ccc(C(F)(F)F)cc1Cl` [compound 37, 1-(2-Chloro-4-trifluoromethyl-phenyl)-3-[4-(pyridin-4-yloxy)-benzyl]-urea]: the IC50 under setting [3] came out at 2800 nM.

With `O=C(NCc1ccc(Oc2ccncc2)cc1)Nc1ccc(Cl)c(Cl)c1` [compound 38, 1-(3,4-Dichloro-phenyl)-3-[4-(pyridin-4-yloxy)-benzyl]-urea], the 50% inhibitory concentration (IC50) under setting [3] came out at 2100 nM.

As to `O=C(NCc1ccc(Oc2ccncc2)cc1)Nc1ccc(Cl)cc1C(F)(F)F` [compound 40, 1-(4-Chloro-2-trifluoromethyl-phenyl)-3-[4-(pyridin-4-yloxy)-benzyl]-urea], the IC50 under setting [3] amounted to 9900 nM.

As for `CCOc1ccc(NC(=O)NCc2ccc(Oc3ccncc3)cc2)cc1` [compound 41, 1-(4-Ethoxy-phenyl)-3-[4-(pyridin-4-yloxy)-benzyl]-urea], the IC50 under setting [3] is at least 100000 nM. `O=C(NCc1ccc(Oc2ccncc2)cc1)Nc1cc(C(F)(F)F)ccc1Cl` [compound 43, 1-(2-Chloro-5-trifluoromethyl-phenyl)-3-[4-(pyridin-4-yloxy)-benzyl]-urea]: the 50% inhibitory concentration (IC50) under setting [3] turned out to be 42 nM. On to `Cc1cc(C)cc(NC(=O)NCc2ccc(Oc3ccncc3)cc2)c1` [compound 44, 1-(3,5-Dimethyl-phenyl)-3-[4-(pyridin-4-yloxy)-benzyl]-urea], for which the IC50 under setting [3] was 1800 nM.
